Where a name gives a salt, the structure may show the parent alone. Where a SMILES comes first, the peptide text is derived from it. Where no end group is shown, it is not given here. [ ]: non-standard residue; d: D form.
molecular target: opiate receptor; test: Opiate receptor affinity by method of Pasternak et al. using tritiated naloxone, absence of sodium ions; format: binding; details: TABLE 1 (Example 2), method indicated in Example 1: tritiated naloxone
Protocol: *Method of Pasternak, G. W. et al., Molecular Pharmacology, 11, 340-351
(1975) using tritiated naloxone and in the absence of sodium ions; assays
performed at 4° C. in the presence of bacitracin (50 μg/ml) in
trishydrochloric acid buffer (50 mM, pH 7.4).
(§1) The opiate receptor IC50 (M) was ascertained by the method indicated in Example 1.
as §1

Row | Compound | IC50 [µM]
1 | COC(=O)[C@H](CCSC)NC(=O)[C@H](Cc1ccccc1)NC(=O)CNC(=O)[C@@H](C)NC(=O)[C@@H](N)Cc1ccc(O)cc1 [(D), H . Tyr . D-Ala . Gly . Phe . Met . OMe] | 0.005
2 | CSCC[C@H](NC(=O)[C@H](Cc1ccccc1)NC(=O)CNC(=O)[C@@H](C)NC(=O)[C@@H](N)Cc1ccc(O)cc1)C(=O)N[C@H](C(=O)O)[C@@H](C)O [(E), H . Tyr . D-Ala . Gly . Phe . Met . Thr . OH HCl] (H-Y[dA]GFMT-OH) | 0.0056
3 | CC(C)C[C@H](NC(=O)[C@H](Cc1ccccc1)NC(=O)CNC(=O)[C@@H](C)NC(=O)[C@@H](N)Cc1ccc(O)cc1)C(=O)N[C@H](C(=O)O)[C@@H](C)O [(G), H . Tyr . D-Ala . Gly . Phe . Leu . Thr . OH HCl] (H-Y[dA]GFLT-OH) | 0.008
4 | CSCC[C@@H](NC(=O)[C@H](Cc1ccccc1)NC(=O)CNC(=O)[C@@H](C)NC(=O)[C@@H](N)Cc1ccc(O)cc1)C(=O)O [(J), H . Tyr . D-Ala . Gly . Phe . D-Met . OH HCl] | 0.008
5 | CC(C)C[C@@H](NC(=O)[C@H](Cc1ccc(Cl)cc1)NC(=O)CNC(=O)[C@@H](C)NC(=O)[C@@H](N)Cc1ccc(O)cc1)C(=O)O [(K), H . Tyr . D-Ala . Gly . Phe (4Cl) . D-Leu . OH HCl] | 0.001
6 | COC(=O)[C@@H](CC(C)C)NC(=O)[C@H](Cc1ccc(Cl)cc1)NC(=O)CNC(=O)[C@@H](C)NC(=O)[C@@H](N)Cc1ccc(O)cc1 [(L), H . Tyr . D-Ala . Gly . Phe (4Cl) . D-Leu . OMe HCl] | 0.002

same assay, conditions: TABLE 2 (Example 3), method indicated in Example 1: tritiated naloxone

Row | Compound | IC50 [µM]
7 | CCNC(=O)[C@@H](CC(C)C)NC(=O)[C@H](Cc1ccc(Cl)cc1)NC(=O)CNC(=O)[C@@H](C)NC(=O)[C@@H](N)Cc1ccc(O)cc1 [(A1), H . Tyr . D-Ala . Gly . Phe(4Cl) . D-Leu . NHEt HCl] | 0.08
8 | CC(C)C[C@H](NC(=O)[C@H](Cc1ccccc1)NC(=O)[C@H](C)NC(=O)[C@@H](C)NC(=O)[C@@H](N)Cc1ccc(O)cc1)C(=O)O [(N), H . Tyr . D-Ala . Ala . Phe . Leu . OH HCl] (H-Y[dA]AFL-OH) | 0.08
9 | CCCC[C@H](NC(=O)[C@H](Cc1ccccc1)NC(=O)CNC(=O)CNC(=O)[C@@H](N)Cc1ccc(O)cc1)C(=O)O [(O), H . Tyr . Gly . Gly . Phe . Nle . OH HCl] | 0.08
10 | CC(C)C[C@@H](NC(=O)[C@H](Cc1ccccc1)NC(=O)CNC(=O)CNC(=O)[C@@H](N)Cc1ccc(O)cc1)C(=O)O [(P), H . Tyr . Gly . Gly . Phe . D-Leu . OH HCl] | 0.025
11 | C[C@@H](NC(=O)[C@@H](N)Cc1ccc(O)cc1)C(=O)NCC(=O)N[C@@H](Cc1ccccc1)C(=O)N[C@H](C(=O)O)[C@@H](C)O [(Q), H . Tyr . D-Ala . Gly . Phe . Thr . OH HCl] (H-Y[dA]GFT-OH) | 0.09
12 | CC(C)C[C@@H](NC(=O)[C@H](Cc1ccccc1)NC(=O)CNC(=O)[C@@H](C)NC(=O)[C@@H](N)Cc1ccc(O)cc1)C(=O)N[C@H](C(=O)O)[C@@H](C)O [(R), H . Tyr . D-Ala . Gly . Phe . D-Leu . Thr . OH HCl] (H-Y[dA]GF[dL]T-OH) | 0.03
13 | CSCC[C@@H](NC(=O)[C@H](Cc1ccccc1)NC(=O)CNC(=O)[C@@H](C)NC(=O)[C@@H](N)Cc1ccc(O)cc1)C(=O)N[C@H](C(=O)O)[C@@H](C)O [(S), H . Tyr . D-Ala . Gly . Phe . D-Met . Thr . OH HCl] (H-Y[dA]GF[dM]T-OH) | 0.07
14 | C[C@@H](NC(=O)[C@@H](N)Cc1ccc(O)cc1)C(=O)NCC(=O)N[C@@H](Cc1ccccc1)C(=O)O [(T), H . Tyr . D-Ala . Gly . Phe . OH HCl] | 0.07
15 | CC(C)C[C@@H](NC(=O)[C@H](Cc1ccccc1)NC(=O)CNC(=O)[C@@H](C)NC(=O)[C@@H](N)Cc1ccc(O)cc1)C(=O)Oc1ccc(Cl)cc1 [(U), H . Tyr . D-Ala . Gly . Phe . D-Leu . p-chlorophenyl ester HCl] | 0.05
16 | CN[C@@H](Cc1ccc(O)cc1)C(=O)N[C@H](C)C(=O)NCC(=O)N[C@@H](Cc1ccccc1)C(=O)N[C@H](CC(C)C)C(=O)O [(V), H . MeTyr . D-Ala . Gly . Phe . D-Leu . OH HCl] | 0.03
17 | COC(=O)[C@@H](CC(C)C)NC(=O)[C@H](Cc1ccccc1)NC(=O)CNC(=O)CNC(=O)[C@@H](N)Cc1ccc(O)cc1 [(W), H . Tyr . Gly . Gly . Phe . D-Leu . OMe HCl] | 0.06
18 | CN[C@@H](Cc1ccc(O)cc1)C(=O)N[C@H](C)C(=O)NCC(=O)N[C@@H](Cc1ccccc1)C(=O)N[C@H](CC(C)C)C(N)=O [(X), H . MeTyr . D-Ala . Gly . Phe . D-Leu . NH2 HCl] | 0.02
19 | COC(=O)[C@@H](CCSC)NC(=O)[C@H](Cc1ccccc1)NC(=O)CNC(=O)CNC(=O)[C@@H](N)Cc1ccc(O)cc1 [(Y), H . Tyr . Gly . Gly . Phe . D-Met . OMe HCl] | 0.06
20 | CSCC[C@@H](NC(=O)[C@H](Cc1ccccc1)NC(=O)CNC(=O)CNC(=O)[C@@H](N)Cc1ccc(O)cc1)C(=O)O [(Z), H . Tyr . Gly . Gly . Phe . D-Met . OH HCl] | 0.01
21 | YGGFV [(M), H . Tyr . Gly . Gly . Phe . Val . OH HCl] | 0.08

same assay, conditions: table of Example 1, tritiated naloxone, 4° C., bacitracin 50 μg/ml, pH 7.4

Row | Compound | IC50 [µM]
22 | CSCC[C@H](NC(=O)[C@H](Cc1ccccc1)NC(=O)CNC(=O)[C@@H](C)NC(=O)[C@@H](N)Cc1ccc(O)cc1)C(=O)O [(B), H . Tyr . D-Ala . Gly . Phe . Met . OH HCl] | 0.0038

tested on: opiate receptor; test: Specific binding affinity for the opiate receptor of the radio-iodinated peaks; details: first peak (monoiodinated) compared with second peak (diiodinated)
Protocol: The material comprising this peak was applied to a Sephadex 2-(diethylamino)ethyl ether column and eluted with sodium borate buffer (12.5 mM, pH 9.0, 0.1 N sodium chloride).

Row | Compound | specific binding affinity (for the opiate receptor)
25 | CC(C)C[C@H](NC(=O)[C@H](Cc1ccccc1)NC(=O)CNC(=O)[C@@H](C)NC(=O)[C@@H](N)Cc1ccc(O)c([125I])c1)C(=O)O [material of the first peak, H.Tyr(3-^125 I).D-Ala.Gly.Phe.Leu.OH] | greater specific binding affinity
